From ChEMBL document CHEMBL1149029, “New cycloartanol sulfates from the alga Tydemania expeditionis: inhibitors of the protein tyrosine kinase pp60v-src” (J Nat Prod, 1994)

Assay: Inhibition of Rous sarcoma virus pp60v-src

Row | IC50 | SMILES
1 | 39 µM | CC(C)=CC(=O)C[C@@H](C)[C@H]1CC[C@@]2(C)[C@@H]3CC[C@H]4[C@](C)(COS(=O)(=O)O)[C@@H](OS(=O)(=O)O)CC[C@@]45C[C@@]35CC[C@]12C
2 | 100 µM | CC(C)CC(O)C[C@@H](C)[C@H]1CC[C@@]2(C)[C@@H]3CC[C@H]4[C@](C)(COS(=O)(=O)O)[C@@H](OS(=O)(=O)O)CC[C@@]45C[C@@]35CC[C@]12C (stereo partly drawn)
3 | 32 µM | CC(C)CC(=O)C[C@@H](C)[C@H]1CC[C@@]2(C)[C@@H]3CC[C@H]4[C@](C)(COS(=O)(=O)O)[C@@H](OS(=O)(=O)O)CC[C@@]45C[C@@]35CC[C@]12C
